The nature of series [1]: Partition coefficient, log P of the compound. Conditions: octanol/water. It is filed as physicochemical.
Series [2] concerns Haemonchus contortus. In words: Anthelmintic activity against Haemonchus contortus in infected sheep assessed as reduction in faecal egg at 0.05 mg/kg, po. It is filed as functional, Feces. Also on record: scale not given: the % may be the effect or the level left.
The subject of series [3] is Haemonchus contortus. In words: Anthelmintic activity against Haemonchus contortus in infected sheep assessed as reduction in faecal egg at 0.10 mg/kg, po. Particulars: dose 0.1 mg/kg. It is filed as functional, Feces. Details: scale not given: the % may be the effect or the level left.
The subject of series [4] is Haemonchus contortus. In words: Anthelmintic activity against Haemonchus contortus in infected sheep assessed as reduction in faecal egg at 0.25 mg/kg, po. The series is classed as functional, Feces. Details: scale not given: the % may be the effect or the level left.

`CCC(C)[C@H]1C(=O)O[C@H](C)C(=O)N(C)[C@@H](C)C(=O)O[C@H](C)C(=O)N(C)[C@@H](C(C)CC)C(=O)O[C@H](C)C(=O)N1C` (stereo partly drawn) registered a logP in series [1] of 3.26. Moreover, the Activity result in series [2] was “>=95%”.
For the compound `CC[C@@H](C)[C@H]1C(=O)O[C@H](Cc2ccc([N+](=O)[O-])cc2)C(=O)N(C)[C@@H]([C@H](C)CC)C(=O)O[C@H](C)C(=O)N(C)[C@@H](C)C(=O)O[C@H](C)C(=O)N1C`, in series [3], the Activity turned out to be 50%.
Turning to `CC[C@@H](C)[C@H]1C(=O)O[C@H](Cc2ccccc2N)C(=O)N(C)[C@@H]([C@H](C)CC)C(=O)O[C@H](C)C(=O)N(C)[C@@H](C)C(=O)O[C@H](C)C(=O)N1C`, the logP in series [1] came out at 3.18. In addition, in series [2], the Activity entry is reported as “>=95%”.
For the compound `CC[C@@H](C)[C@H]1C(=O)O[C@H](Cc2ccccc2)C(=O)N(C)[C@@H]([C@H](C)CC)C(=O)O[C@H](C)C(=O)N(C)[C@@H](C)C(=O)O[C@H](C)C(=O)N1C`, the logP in series [1] stood at 4.23. The Activity result in series [4] is “<=50%”.
On to `CC[C@@H](C)[C@H]1C(=O)O[C@H](Cc2ccc(N3CCOCC3)cc2)C(=O)N(C)[C@@H]([C@H](C)CC)C(=O)O[C@H](C)C(=O)N(C)[C@@H](C)C(=O)O[C@H](C)C(=O)N1C`, for which the Activity result in series [3] was “>=95%”. This compound had a logP in series [1] of 3.58.
In the case of `CC[C@@H](C)[C@H]1C(=O)O[C@H](Cc2cccc(N)c2)C(=O)N(C)[C@@H]([C@H](C)CC)C(=O)O[C@H](C)C(=O)N(C)[C@@H](C)C(=O)O[C@H](C)C(=O)N1C`, the logP in series [1] was 2.35. The Activity entry in series [2] is “>=95%”.
For `CC[C@@H](C)[C@H]1C(=O)O[C@H](Cc2ccc(N)cc2)C(=O)N(C)[C@@H]([C@H](C)CC)C(=O)O[C@H](C)C(=O)N(C)[C@@H](C)C(=O)O[C@H](C)C(=O)N1C`, in series [3], the Activity came out at 50%. Also, the logP in series [1] worked out at 2.08.

(Values after ChEMBL document CHEMBL1145322, “Synthesis and anthelmintic activity of substituted (R)-phenyllactic acid containing cyclohexadepsipeptides” (Bioorg Med Chem Lett, 2006).)
